According to patent publication US20060188879A1, “Crh responsive genes in cns” (Janssen Pharmaceutica N.V., priority 2002, published 2006):
Entries after “also recorded” stand apart in the source; their conditions may differ.

Columns and labels:
Type in all cases: in vivo, mouse
[1] = system: gene expression profiles in brain areas of CRH overexpressing mice; experiment: Microarray gene expression profiles of brain areas (spectral map analysis, SAM)
Protocol: Animal housing and treatment—Male transgenic CRF overexpressing C57BL/6J mice (CRF-OE or TG) and their wild-type littermates (WT) were maintained in an specific pathogen free facility that meets all national and European requirements for animal care. Mice were housed individually 4 weeks before the start of the experiment in a climate-controlled animal colony with a 12 h dark-light cycle (light on 7:00 EST) with free access to food and water. Prior to treatment 3 month old mice were randomized over three groups each comprising 4 wild-type and 4 transgenic animals. […]
Microarray hybridization—cRNA was prepared as follows. […] Subsequently arrays were scanned with a HP-Laserscanner and data were analyzed with the Microarray Suite Software (Affymetrix). […] Quality of the experiment was assessed based on the percentages present calls (see table). […]
Basically this alignment sets the average intensity of one array to the average measured this normalization compensates for array to array variations in hybridization, washing and staining, ultimately allowing a reasonable comparison between arrays. After normalization, data were analyzed using weighted spectral mapping analysis (SMA) (7). […]

all NTS-sites (Nts1-3) = experiment: [125I]NT binding, quantitative autoradiography on brain sections of treated mice; conditions: subchronic administration
Protocol: FIG. 6: [^125I]NT binding (0.1 nM, 30 min, RT) to all NTS-sites determined via quantitative autoradiography on frozen glass-mounted brain tissue sections. Data are represented as the average IOD±SEM of three animals determined on at least three different Bregma sections each.
(§1) Animal housing and treatment—Male transgenic CRF overexpressing C57BL/6J mice (CRF-OE or TG) and their wild-type littermates (WT) were maintained in an specific pathogen free facility that meets all national and European requirements for animal care. Mice were housed individually 4 weeks before the start of the experiment in a climate-controlled animal colony with a 12 h dark-light cycle (light on 7:00 EST) with free access to food and water. Prior to treatment 3 month old mice were randomized over three groups each comprising 4 wild-type and 4 transgenic animals. One group received no treatment, a second group received vehicle injection 5 days, 2 times per day (10% cyclodextran (CD), pH4) and a third group received 10 mg/kg of a CRH-R1 specific antagonist R121919 in 10% CD following the same regime. 16 hrs after last treatment animals were sacrificed for dissection of brain areas and subsequent isolation of RNA.
Autoradiography—[^125 I]Neurotensin binding and film radiographs on brains of adult male transgenic C57BU6J mice and their wild-type littermates, was performed as described previously by Moyse et al. (12). […] Incubating additional sections in the presence of 1 μM native neurotensin assessed the non-specific staining. […] On each section structures were delineated interactively and pixel gray levels were measured in the outlined areas. The pixel gray levels were converted to radioactivity per mg of tissue using the co-exposed ^125I-standards and averaged over the measured area. Data were analyzed statistically by a two-way ANOVA and concomitant Bonferroni's Post-hoc test using SPSS 11.0 software.

[2] = system: neurotensin receptor 2 (Ntsr2); experiment: Quantitative RT-PCR / microarray of Ntsr2 mRNA in brain areas of treated WT and CRF-OE mice; conditions: 10 mg/kg, 2 times per day for 5 days, 16 hrs after last treatment
Protocol: as §1, with “RNA. […]” for “RNA.”
Microarray hybridization—cRNA was prepared as follows. […] Subsequently arrays were scanned with a HP-Laserscanner and data were analyzed with the Microarray Suite Software (Affymetrix). […] Quality of the experiment was assessed based on the percentages present calls (see table).
Quantitative RT-PCR—Microarray data were confirmed using real time PCR analysis. […] Quantitative PCR was performed on a ABIPrism 7700 cycler (Applied Biosystems) using a Taqman PCR kit. […]

[3] = system: neurotensin receptor 1 (Ntsr1); experiment: Quantitative RT-PCR of Ntsr1 mRNA in brain areas of treated WT and CRF-OE mice; conditions: 10 mg/kg, 2 times per day for 5 days, 16 hrs after last treatment, hippocampus
Protocol: as §1, with “RNA. […]” for “RNA.”
Quantitative RT-PCR—Microarray data were confirmed using real time PCR analysis. […] Quantitative PCR was performed on a ABIPrism 7700 cycler (Applied Biosystems) using a Taqman PCR kit. […] A linear regression line calculated from the standard curves allowed the determination of transcript levels in RNA samples from the different treatment groups at each brain area.

CCCN(CCC)c1cc(C)nc2c(-c3cnc(N(C)C)cc3C)c(C)nn12 [R121919]
Changes in gene expression profile of CRH overexpressing (Tg) versus WT animals ([1]; 5 day treatment, all studied brain areas, exemplified by pituitary spectral map, listed as CRH-R1 antagonist): not affected (or only to a limited degree); also recorded: does not lead to a general ‘normalization’
Effect on expression levels at the pituitary level ([1]; transgenic animals, pituitary): some effect of the compound is measured
Downregulation of [125I]NT binding at total NT binding level (all NTS-sites (Nts1-3); CRF-OE mice): counteracted the downregulation
[125I]NT binding capacity compared to vehicle treated animals (all NTS-sites (Nts1-3); stratum radiatum bordering CA1-CA2 region, both WT and CRF-OE animals, p=0.057): upward trend
Level of [125I]NT binding in treated CRF-OE animals versus untreated animals (all NTS-sites (Nts1-3); stratum radiatum, CRF-OE mice): equaled the level measured in untreated WT-animals; also recorded: equaled that in untreated animals
Upregulation of Ntsr2 mRNA expression in vehicle treated animals (repeated injection stress) [2]: abolished; also recorded: counteracted
Upregulation of Ntsr1 mRNA expression in vehicle treated animals (repeated injection stress) [3]: abolished; also recorded: counteracted
